In US20100035862A1, “NOVEL AZA-CYCLIC INDOLE-2-CARBOXAMIDES AND METHODS OF USE THEREOF” (ABBOTT LABORATORIES, priority 2008, published 2010):

Target: T1, human α4β2 (Homo sapiens, UniProt P17787+P43681)
T1 construct: expressed in transfected cells
Experiment: Calcium flux assay (FLIPR) in HEK 293 cells expressing NNR subtype; potentiation of submaximal agonist response
Format: cell-based
Details: α4β2 PAM; response to submaximal agonist (EC20-30%) such as nicotine
From the text: One manner to characterize α4β2 PAM activity is by characterization in clonal cell lines (for example, human embryonic kidney 293 cells) expressing the human neuronal nicotinic acetylcholine receptor subtype α4β2, particularly by use of Fluorescent Image Plate Reader technology. Effects on calcium flux or membrane potential changes can be assessed. Such assays have been reported and further details for carrying out, the assays can be obtained in International Publication No. WO 2006/114400. Another method to identify and characterize allosteric modulator activity is by expressing the α4β2 subunits in Xenopus oocytes, and by measuring electrophysiological effects on ligand-evoked current responses as previously described in Curtis, L., et al., Molecular Pharmacology, 61: 127-135, 2002.
To determine the effectiveness of representative compounds of this invention as ligands for α4β2 PAM activity, the compounds of the invention can be evaluated according to the Calcium Flux Assay described below.
Calcium Flux Assays Using Cells Expressing NNR Subtypes
Human embryonic kidney (HEK) 293 cells stably expressing human α4β2 or (3β4 combinations are grown to confluency in 162 cm^2 tissue culture flasks in DMEM media supplemented with 10% FBS and 25 μg/mL zeocin and 200 μg/mL hygromycin B. Cells expressing rat or ferret subunits may also be used. For assessing α3* or α7* selectivity, IMR-32 cells may also be used. IMR-32 neuroblastoma cells (ATCC) are grown to confluency in 162 cm^2 tissue culture flasks in minimum essential media supplemented with 10% FBS and 1 mM sodium pyruvate, 1% non-essential amino acids and 1% antibiotic-antimycotic. For the calcium flux assay, c cells are then dissociated using cell dissociation buffer and 100-150 μL per well of 3.5×10^5 cells/mL cell suspension (˜50,000-100,000 cells/well) was plated into 96-well black plates (poly-D-lysine precoated) with clear bottom and maintained for 24-48 hours in a tissue culture incubator at 37° C. under an atmosphere of 5% CO2: 95% air. Other clonal cell lines or primary cell cultures that express endogenous α4* nicotinic receptors may also be used in this assay. Calcium flux was measured using calcium-3 assay kit (Molecular Devices, Sunnyvale, Calif.) or fluo-4 (Invitrogen). A stock solution of the dye was prepared by dissolving each vial supplied by the vendor in Hank's balanced-salt solution buffer (HBSS) or 150 mM NMDG, 20 mM calcium chloride containing 10 mM HEPES. The stock-solution was diluted 1:20 using a the same buffer before use. The growth media was removed from the cells. The cells were loaded with 100 μL of the dye per well and incubated at room temperature for up to one hour for HEK 293 clonal stable cell lines or 30 minutes-45 minutes at 37° C. for IMR-32 cells. Fluorescence measurements were read simultaneously from all the wells by a Fluorometic Imaging Plate Reader (FLIPR) at an excitation wavelength of 480 nm and an emission wavelength of 520 nm. Baseline fluorescence was measured for the first 6 seconds at which 3× concentrations of modulator/test compounds were added to the cell plate at 50 μL and incubated for five minutes. The fluorescence intensity was captured every second for the first 1 minute followed by every 5 seconds for an additional 4 minutes. This procedure was followed by 50 μL of 4× concentration of agonist and readings were taken for a period of 3-5 minutes as described above.
The ability of test compounds to positively modulate the response (i.e., increase the response) induced by a submaximal concentration of agonist (EC20-30%) such as nicotine is measured. Potentiation is measured based on peak fluorescence responses. by screening compounds at fixed concentrations or in a concentration-response manner to derive, EC50 values. The concentration dependence of changes in fluorescence responses is fitted by nonlinear regression analysis (GraphPad Prism, San Diego, Calif.) to obtain EC50 values. […]

T1 sequence (P43681 29-627 limits assumed): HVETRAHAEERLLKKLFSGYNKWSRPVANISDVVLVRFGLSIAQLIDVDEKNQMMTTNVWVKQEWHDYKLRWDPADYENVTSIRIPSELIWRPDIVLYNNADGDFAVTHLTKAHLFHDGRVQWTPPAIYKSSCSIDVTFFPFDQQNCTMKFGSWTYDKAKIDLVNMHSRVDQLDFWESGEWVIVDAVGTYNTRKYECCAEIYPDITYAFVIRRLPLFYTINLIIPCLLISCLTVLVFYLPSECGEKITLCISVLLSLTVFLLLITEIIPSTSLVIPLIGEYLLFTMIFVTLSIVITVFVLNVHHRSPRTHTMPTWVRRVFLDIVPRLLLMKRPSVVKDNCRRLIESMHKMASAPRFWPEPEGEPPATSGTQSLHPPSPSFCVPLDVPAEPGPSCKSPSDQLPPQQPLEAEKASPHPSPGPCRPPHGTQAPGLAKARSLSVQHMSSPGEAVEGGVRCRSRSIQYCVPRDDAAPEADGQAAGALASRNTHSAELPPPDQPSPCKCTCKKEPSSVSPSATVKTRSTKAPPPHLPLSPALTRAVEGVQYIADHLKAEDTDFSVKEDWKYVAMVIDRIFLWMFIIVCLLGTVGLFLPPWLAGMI
T1 sequence (P17787 26-502): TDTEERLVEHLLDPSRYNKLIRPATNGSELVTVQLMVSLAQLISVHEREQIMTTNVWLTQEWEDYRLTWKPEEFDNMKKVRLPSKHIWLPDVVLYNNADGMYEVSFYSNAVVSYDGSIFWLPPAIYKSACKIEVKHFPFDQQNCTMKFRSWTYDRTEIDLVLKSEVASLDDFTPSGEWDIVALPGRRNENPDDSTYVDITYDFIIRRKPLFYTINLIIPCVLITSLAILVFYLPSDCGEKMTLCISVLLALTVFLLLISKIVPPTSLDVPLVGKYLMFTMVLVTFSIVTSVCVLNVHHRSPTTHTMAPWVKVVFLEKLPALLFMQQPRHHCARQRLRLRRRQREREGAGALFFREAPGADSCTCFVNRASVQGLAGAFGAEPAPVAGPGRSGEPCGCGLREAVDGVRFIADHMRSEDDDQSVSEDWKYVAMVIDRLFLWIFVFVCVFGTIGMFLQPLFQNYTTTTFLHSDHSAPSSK

With `Cc1ccc(C)c2c(C)c(C(=O)N[C@@H]3CCNC3)[nH]c12` [Example 1, (R)-3,4,7-trimethyl-N-(pyrrolidin-3-yl)-1H-indole-2-carboxamide] the “Activity (allostertc effects—potentiation of fluorescence responses)” value (shortened to “Activity”) was “a (“a” denotes active compounds (>100%))”.
For `Cc1ccc(C)c2c(C)c(C(=O)N[C@@H]3CCCN(C)C3)[nH]c12.Cc1ccc(S(=O)(=O)O)cc1` [Example 109, (R)-3,4,7-trimethyl-N-(1-methylpiperidin-3-yl)-1H-indole-2-carboxamide tosylate], the “Activity” value was “a (“a” denotes active compounds (>100%))”.
For `Cc1ccc(C)c2c(C)c(C(=O)N[C@@H]3CCCNC3)[nH]c12` [Example 108, (R)-3,4,7-trimethyl-N-(piperidin-3-yl)-1H-indole-2-carboxamide], the “Activity” value was “a (“a” denotes active compounds (>100%))”.
`CN1CC[C@H](NC(=O)c2cc3c(Cl)cc(Cl)cc3[nH]2)C1` [Example 40, (S)-4,6-dichloro-N-(1-methylpyrrolidin-3-yl)-1H-indole-2-carboxamide] was tested, and the “Activity” value was “a (“a” denotes active compounds (>100%))”.
For `CC(C)(C)c1ccc2cc(C(=O)N[C@@H]3CCNC3)[nH]c2c1` [Example 10, (R)-6-tert-butyl-N-(pyrrolidin-3-yl)-1H-indole-2-carboxamide], the “Activity” value was “a (“a” denotes active compounds (>100%))”.
`O=C(N[C@@H]1CCNC1)c1cc2ccc(-c3ccccc3)cc2[nH]1` [Example 13, (R)-6-phenyl-N-(pyrrolidin-3-yl)-1H-indole-2-carboxamide] was tested, and the “Activity” value was “a (“a” denotes active compounds (>100%))”.
With `O=C(N[C@@H]1CCCNC1)c1cc2c(Cl)cc(Cl)cc2[nH]1` [Example 114, (R)-4,6-dichloro-N-(piperidin-3-yl)-1H-indole-2-carboxamide] the “Activity” value was “a (“a” denotes active compounds (>100%))”.
With `CN1CC[C@@H](NC(=O)c2cc3cc(Cl)ccc3[nH]2)C1` [Example 31] the “Activity” value was “a (“a” denotes active compounds (>100%))”.
